{
  "source": "patent US20250177576A1",
  "about": "“COMPOUNDS FOR THE MEASUREMENT OF THE OXYGEN CONCENTRATION” (Center for Neuromusculoskeletal Restorative Medicine Limited, priority 2022, published 2025)",
  "assay_type_in_all_cases": "physicochemical",
  "key": {"[1]": {"experiment": "Oxygen quenching calibration (Stern-Volmer) in tetrahydrofuran", "settings": "10 μM in tetrahydrofuran", "method": "The photoluminescence spectra of the Pt(ttiq)(acac) (10 μM) in tetrahydrofuran in different oxygen concentrations upon 500 nm photoexcitation is presented in FIG. 2A. The phosphorescence peak intensity (698 nm) increases while the oxygen level of the solution decreases, whereas the fluorescence (528 nm) remains independent of the oxygen level. The oxygen quenching of the phosphorescence may be interpreted using Stern-Volmer relationship, in which (I0/I=1+KSV·[O2]) where I: phosphorescence intensity; I0: phosphorescence intensity at 0% of oxygen; KSV: quencher coefficient; [O2]: oxygen concentration. The data of FIG. 2A are fitted with this relationship in FIG. 2B and thus the I0 could be estimated from the equation of (y=133.75801/(1+0.0371−x); adjusted R^2=0.98066). Therefore, a linear correlation of I0/I against [O2](y=1.10962+0.03545 x; adjusted R^2=0.99036) could be established as in FIG. 2C. Mathematically, the Stern-Volmer relationship could be further derived to (R0/R=1+KSV·[O2]) whereas the fluorescence peak intensity is a constant, and thus the R0 could be estimated from the equation of (y=2.04177/(1+0.03267−x); adjusted R^2=0.97785) in FIG. 2D. Similarly, a linear correlation of R0/R against [O2](y=1.07595+0.03165−x; adjusted R^2=0.98135) could be established as in FIG. 2E. In short, the linear correlation between the ratiometric photoluminescence signal and oxygen concentration (%) obtained from FIG. 2E may be utilized to analyze the oxygen content of a tetrahydrofuran sample without the concerns of concentration dependency and absolute intensity value.\nThe oxygen concentration (%) or partial pressure of solution samples were varied by O2/N2 gas-purging with a syringe needle and natural ventilation (or gradually adding sodium sulfite (Na2SO3) solution as an oxygen consuming chemical reagent). The instantaneous oxygen concentration (%) of aqueous samples (or oxygen partial pressure values of tetrahydrofuran solutions) at 293 K were measured using pre-calibrated FireSting®-GO2 oxygen meter (PyroScience) coupled with a TDIP15 temperature probe (PyroScience) and a fiber optic sensor (OXR430-OI, or OXSOLV for organic solvent measurement) (PyroScience). The photoluminescence signals of the nano-sensor solution at different oxygen concentrations (%) (or partial pressures) were then measured by the fluorescence spectrophotometer and confocal laser scanning microscope. The calibration curves were established using the signal intensity at 528 nm and 698 nm from the PL spectra, and integrated signals' intensity from customized green channel (507-609 nm) and red channel (657-740 nm) from the CLSM images."}, "[2]": {"experiment": "PL spectra in water/tetrahydrofuran binary mixtures (aggregation, AIE/ACQ)", "method": "(§1) Proton and carbon NMR spectra were measured in CDCl3 on a Bruker AVANCE III 400 MHz NMR Spectrometer and tetramethylsilane (TMS) was exploited as an internal standard for calibrating the chemical shift. Electrospray Ionization Quadrupole-Time-of-Flight (ESI-Q-TOF) mass spectrometry was performed on an Agilent 6540 Liquid chromatography—ESI-Q-TOF Mass Spectrometer. UV/Vis absorption spectroscopy was performed on a Molecular Devices SpectraMax M2e in different solutions at 293 K. Fluorescence emission spectra were taken from a LS-55 fluorescence spectrophotometer (PerkinElmer) at 293 K.\nIn view of the co-planar chemical structure of Pt(ttiq)(acac), it was interesting to look for any aggregation induced emission (AIE) or aggregation caused quenching (ACQ) property. […] When the water fraction further increased to or above 80%, the mixture formed clearly observable precipitates in the cuvette.\nIn order to observe whether these nanoaggregates were still readily quenched by oxygen, the PL spectra of the nanoaggregates' solution with a fwater of 60% was compared before and after the deaeration."}, "[3]": {"experiment": "Photoluminescence spectra in dichloromethane, oxygen-free vs ambient", "settings": "10 μM in dichloromethane, excitation 500 nm", "method": "as §1"}},
  "data": [
    {"compound": "CC(=O)C=C(C)[O][Pt][c]1c(-c2nccc3ccccc23)sc2ccsc12", "note": "[Pt(ttiq)(acac)]", "values": [
      {"measurement": "quencher coefficient KSV from fit of PL intensity ratio (FIG. 2D)", "setting": "[1]", "value": 0.03267},
      {"measurement": "slope of linear correlation I0/I against [O2] (FIG. 2C)", "setting": "[1]", "value": 0.03545},
      {"measurement": "slope of linear correlation R0/R against [O2] (FIG. 2E calibration curve)", "setting": "[1]", "value": 0.03165},
      {"measurement": "fluorescence peak wavelength", "setting": "[1]; excitation 500 nm", "value": 528, "unit": "nm"},
      {"measurement": "phosphorescence peak wavelength", "setting": "[1]; excitation 500 nm", "value": 698, "unit": "nm"},
      {"measurement": "quencher coefficient KSV from fit of phosphorescence intensity (FIG. 2B)", "setting": "[1]; vs oxygen partial pressure", "value": 0.0371},
      {"measurement": "oxygen response of nanoaggregates", "setting": "[2]; fwater 60%, before and after deaeration", "value": "still very responsive to the oxygen content"},
      {"measurement": "aggregation induced emission property", "setting": "[2]; water fraction 0 to 70% in tetrahydrofuran, 10 μM, ambient, excitation 500 nm", "value": "AIE-active species in the region of 650-750 nm"},
      {"measurement": "water fraction at which clearly observable precipitates form", "setting": "[2]; water/tetrahydrofuran mixture, 10 μM", "value": "≥ 80", "unit": "%"},
      {"measurement": "constant PL peak (fluorescence) wavelength", "setting": "[3]; disregarding oxygen content", "value": 528, "unit": "nm"},
      {"measurement": "maximum phosphorescence intensity wavelength", "setting": "[3]; oxygen-sensitive peak", "value": 698, "unit": "nm"}
    ]}
  ]
}
